Patent publication US20240158446A1, “CYCLIC COMPOUND HAVING SELECTIVE INHIBITORY ACTION ON KRAS OVER HRAS AND NRAS” (CHUGAI SEIYAKU KABUSHIKI KAISHA, priority 2021, published 2024)
Where two headings read alike, the source gives them in different places. *1 amine or outer side, *2 acyl side, *3 side chain or, on linkers, in order; H or OH if unused. Where a SMILES comes first, the peptide text is derived from it. Bridges are numbered along the chain shown (N, C = ends). [ ]: non-standard residue; d: D form. The star is where a group is joined. hPhe(3,5-F2-4-CF3) = N[C@@H](CCc1cc(F)c(C(F)(F)F)c(F)c1)C(=O)O; hPhe(3-Cl-4-CF3) = N[C@@H](CCc1ccc(C(F)(F)F)c(Cl)c1)C(=O)O; NPrPhe(4-CF3) = CCCN[C@@H](Cc1ccc(C(F)(F)F)cc1)C(=O)O; X13 = O=C([C@@H](N[*:1])C1CC(F)(F)C1)[*:2]; NMeGly(cPent) = CN[C@H](C(=O)O)C1CCCC1; Pro(4,4-F2) = O=C(O)[C@@H]1CC(F)(F)CN1; NMeD = CN[C@@H](CC(=O)O)C(=O)O; NMeL = CN[C@@H](CC(C)C)C(=O)O; Morpholide = C1CN(*)CCO1; NMeA = CN[C@@H](C)C(=O)O; Ac5c = NC1(C(=O)O)CCCC1; Aze = O=C(O)[C@@H]1CCN1; Ac4c = NC1(C(=O)O)CCC1; Sar = CNCC(=O)O

Assays:
[1] = target: GDP-bound HRAS wild-type protein (Homo sapiens, UniProt P01112); assay: Binding to HRAS by surface plasmon resonance (SPR), Single Cycle Kinetics; conditions: for HRAS/KRAS (ratio of KD value for HRAS to KD value for KRAS) / HRAS/KRAS (ratio of KD value with respect to HRAS to KD value with respect to KRAS): SPR, GDP-bound HRAS wild-type protein vs GDP-bound KRAS wild-type protein; for HRAS/KRAS (ratio of KD value with respect to GDP-bound HRAS wild-type protein to KD value with respect to KRAS): SPR KD ratio HRAS/KRAS, class symbols
Sequence of GDP-bound HRAS wild-type protein (P01112 whole entry): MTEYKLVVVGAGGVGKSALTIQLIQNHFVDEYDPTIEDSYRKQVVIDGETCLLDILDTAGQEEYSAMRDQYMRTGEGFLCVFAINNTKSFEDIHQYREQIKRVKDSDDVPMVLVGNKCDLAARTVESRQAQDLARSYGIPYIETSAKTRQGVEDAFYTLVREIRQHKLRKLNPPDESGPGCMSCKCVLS

[2] = target: GDP-bound NRAS wild-type protein (Homo sapiens, UniProt P01111); assay: Binding to NRAS by surface plasmon resonance (SPR), Single Cycle Kinetics; conditions: for NRAS/KRAS (ratio of KD value for NRAS to KD value for KRAS) / NRAS/KRAS (ratio of KD value with respect to NRAS to KD value with respect to KRAS): SPR, GDP-bound NRAS wild-type protein vs GDP-bound KRAS wild-type protein; for NRAS/KRAS (ratio of KD value with respect to GDP-bound NRAS wild-type protein to KD value with respect to KRAS): SPR KD ratio NRAS/KRAS, class symbols
Sequence of GDP-bound NRAS wild-type protein (P01111 whole entry): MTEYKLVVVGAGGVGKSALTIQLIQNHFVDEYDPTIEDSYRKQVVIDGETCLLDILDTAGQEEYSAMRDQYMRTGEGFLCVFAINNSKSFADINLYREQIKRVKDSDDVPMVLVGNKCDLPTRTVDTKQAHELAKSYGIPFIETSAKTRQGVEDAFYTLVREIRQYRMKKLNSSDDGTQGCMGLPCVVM

[3] = target: GDP-bound KRAS wild-type protein (Homo sapiens, UniProt P01116); assay: Binding to KRAS by surface plasmon resonance (SPR), Single Cycle Kinetics; conditions: GDP-bound KRAS wild-type protein, read-out: KRAS KD
Sequence of GDP-bound KRAS wild-type protein (P01116 whole entry): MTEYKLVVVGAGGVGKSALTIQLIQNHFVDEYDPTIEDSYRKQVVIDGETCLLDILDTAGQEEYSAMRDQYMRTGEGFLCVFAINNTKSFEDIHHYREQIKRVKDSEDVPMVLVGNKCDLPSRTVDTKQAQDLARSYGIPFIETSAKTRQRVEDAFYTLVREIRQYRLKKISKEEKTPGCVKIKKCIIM

[4] = SPR Single Cycle Kinetics, 1:1 binding model
[5] = SPR, Single Cycle Kinetics, 1:1 binding model

| Kd [3, 4] [nM] | SMILES | HRAS/KRAS (ratio of KD value for HRAS to KD value for KRAS) [1] | NRAS/KRAS (ratio of KD value for NRAS to KD value for KRAS) [2] | HRAS/KRAS (ratio of KD value with respect to GDP-bound HRAS wild-type protein to KD value with respect to KRAS) [1] | NRAS/KRAS (ratio of KD value with respect to GDP-bound NRAS wild-type protein to KD value with respect to KRAS) [2] | further results |
| --- | --- | --- | --- | --- | --- | --- |
| 1.2 | CCCN1C(=O)[C@@H]2CCN2C(=O)[C@H](C)N(C)C(=O)[C@H]([C@@H](C)CC)NC(=O)[C@H](CC(C)C)N(C)C(=O)C[C@@H](C(=O)N2CCOCC2)NC(=O)[C@H](C2CCCC2)N(C)C(=O)C2(CCC2)NC(=O)[C@@H]2CC(F)(F)CN2C(=O)[C@H](CCc2ccc(C(F)(F)F)c(Cl)c2)NC(=O)CN(C)C(=O)[C@@H]1Cc1ccc(C(F)(F)F)cc1 [PP0346] ([NMeL]I[NMeA][Aze][NPrPhe(4-CF3)][Sar][hPhe(3-Cl-4-CF3)][Pro(4,4-F2)][Ac4c][NMeGly(cPent)]D-Morpholide; lactam N-11) | B (a compound having 3 or more and less than 10 is denoted as B) | C (A compound having a KD ratio of 0.1 or more and less than 3 is denoted as C) | – | – | – |
| 1.4 | CCC(CC)[C@H]1C(=O)N(C)[C@H](C(=O)N(C)C)CC(=O)N(C)[C@@H](COC)C(=O)N[C@@H]([C@@H](C)CC)C(=O)N(C)CC(=O)N(C)[C@H]2C/C=C\CCN(C2=O)[C@@H](Cc2ccc(C(F)(F)F)cc2)C(=O)N(C)CC(=O)N[C@@H](CCc2cc(F)c(C(F)(F)F)c(F)c2)C(=O)N2CCOC[C@H]2C(=O)NC2(CC(C)(C)C2)C(=O)N1C [PP2917] | – | – | A (a compound having 10 or more and less than 20 is denoted as A) | AA (a compound having 20 or more is denoted as AA) | – |
| – | CCO[C@@H]1C[C@H]2C(=O)NC3(CC(C)(C)C3)C(=O)N(C)[C@@H](C(CC)CC)C(=O)N3CCC[C@@H]3CC(=O)N(C)[C@@H](CC)C(=O)N[C@@H]([C@@H](C)CC)C(=O)N(C)CC(=O)N(C)[C@H]3C/C=C\CCN(C3=O)[C@@H](Cc3ccc(C(F)(F)F)cc3)C(=O)N(C)CC(=O)N[C@@H](CCc3cc(F)c(C(F)(F)F)c(F)c3)C(=O)N2C1 [PP1605] | – | – | – | – | HRAS/KRAS (ratio of KD value for HRAS to KD value for KRAS) ([1]; KD ratio class): A (a compound having 10 or more and less than 20 is denoted as A); NRAS/KRAS (ratio of KD value for NRAS to KD value for KRAS) ([2]; KD ratio class): A (a compound having 10 or more and less than 20 is denoted as A); Kd [3, 5]: 0.79 nM |
| 0.13 | CCO[C@@H]1C[C@H]2C(=O)NC3(CC(C)(C)C3)C(=O)N(C)[C@@H](C3CCCC3)C(=O)N(C)[C@H](C(=O)N(C)CC)CC(=O)N(C)[C@H]3CCCC/C=C/c4ccc(cc4)C[C@@H](C(=O)N(C)CC(=O)N[C@@H](CCc4ccc(Cl)c(Cl)c4)C(=O)N2C1)N1CC/C=C\C[C@@H](C1=O)N(C)C(=O)CN(C)C(=O)[C@H]([C@@H](C)CC)NC3=O [PP2592] | – | – | A (a compound having 10 or more and less than 20 is denoted as A) | A (a compound having 10 or more and less than 20 is denoted as A) | – |
| 0.066 | CCO[C@@H]1C[C@H]2C(=O)NC3(CCCC3)C(=O)N(C)[C@@H](C3CCCC3)C(=O)N(C)[C@H](C(=O)N(C)C)CC(=O)N(C)[C@@H](CC(C)C)C(=O)N[C@@H]([C@@H](C)CC)C(=O)N(C)CC(=O)N(C)[C@H]3C/C=C\CCN(C3=O)[C@@H](Cc3ccc(C(F)(F)F)cc3)C(=O)N(C)CC(=O)N[C@@H](CCc3ccc(C(F)(F)F)c(Cl)c3)C(=O)N2C1 [PP2838] | – | – | A (a compound having 10 or more and less than 20 is denoted as A) | AA (a compound having 20 or more is denoted as AA) | – |
| – | CCO[C@@H]1C[C@H]2C(=O)NC3(CCC3)C(=O)N(C)[C@@H](C3CCCC3)C(=O)N(C)[C@H](C(=O)N(C)C)CC(=O)N(C)[C@@H](CC3CC3)C(=O)N[C@@H]([C@@H](C)CC)C(=O)N(C)CC(=O)N(C)[C@H]3C/C=C\CCN(C3=O)[C@@H](Cc3ccc(C(F)(F)F)cc3)C(=O)N(C)CC(=O)N[C@@H](CCc3cc(F)c(C(F)(F)F)c(F)c3)C(=O)N2C1 [PP1111, (2S,8S,12R,14S,20S,23S,27S,30S,36S,38Z)-20-cyclopentyl-27-(cyclopropylmethyl)-8-[2-[3,5-difluoro-4-(trifluoromethyl)phenyl]ethyl]-12-ethoxy-N,N,4,19,22,26,32,35-octamethyl-30-[(1S)-1-methylpropyl]-3,6,9,15,18,21,25,28,31,34,42-undecaoxo-2-[[4-(trifluoromethyl)phenyl]methyl]spiro[1,4,7,10,16,19,22,26,29,32,35-undecazatricyclo[34.5.1.0^10,14]dotetracont-38-ene-17,1′-cyclobutane]-23-carboxamide] | A (a compound having 10 or more and less than 20 is denoted as A) | A (a compound having 10 or more and less than 20 is denoted as A) | – | – | Kd ([3]; SPR, Single Cycle Kinetics): 0.045 nM |
| 15 | CC[C@H](C)[C@@H]1NC(=O)[C@H](CC(C)C)N(C)C(=O)C[C@@H](C(=O)N2CCOCC2)N(C)C(=O)[C@H](C2CCCC2)N(C)C(=O)C2(CCCC2)NC(=O)[C@@H]2CCCN2C(=O)[C@H](CCc2cc(F)c(C(F)(F)F)c(F)c2)NC(=O)CN(C)C(=O)[C@H](Cc2ccc(C(F)(F)F)cc2)N2CCCC[C@@H](C2=O)N(C)C(=O)[C@@H]2CCCCN2C1=O [PP0548] | – | – | – | – | HRAS/KRAS (ratio of KD value with respect to HRAS to KD value with respect to KRAS) [1]: B (a compound having 3 or more and less than 10 is denoted as B); NRAS/KRAS (ratio of KD value with respect to NRAS to KD value with respect to KRAS) [2]: C (A compound having a KD ratio of 0.1 or more and less than 3 is denoted as C) |
| – | CCCN(C)C(=O)[C@@H]1CC(=O)N(C)[C@@H](C(C)C)C(=O)N[C@@H]([C@@H](C)CC)C(=O)N(C)CC(=O)N(C)[C@H]2C/C=C\CCN(C2=O)[C@@H](Cc2ccc(C(F)(F)F)cc2)C(=O)N(C)CC(=O)N[C@@H](CCc2ccc(C(F)(F)F)c(OC)c2)C(=O)N2C[C@@H](C)C[C@H]2C(=O)NC2(CCC2)C(=O)N(C)[C@@H](C2CCCC2)C(=O)N1C [PP2067] | A (a compound having 10 or more and less than 20 is denoted as A) | AA (a compound having 20 or more is denoted as AA) | – | – | Kd ([3]; SPR, Single Cycle Kinetics): 0.24 nM |
| – | CCO[C@@H]1C[C@H]2C(=O)NC3(CCC3)C(=O)N(C)[C@@H](C3CCCC3)C(=O)N(C)[C@H](C(=O)N(C)C)CC(=O)N(C)[C@@H](CC(C)C)C(=O)N[C@@H]([C@@H](C)CC)C(=O)N(C)CC(=O)N(C)[C@H]3C/C=C\CCN(C3=O)[C@@H](Cc3ccc(F)cc3)C(=O)N(C)CC(=O)N[C@@H](CCc3cc(F)c(C(F)(F)F)c(F)c3)C(=O)N2C1 [PP1488, (2S,8S,12R,14S,20S,23S,27S,30S,36S,38Z)-20-cyclopentyl-8-[2-[3,5-difluoro-4-(trifluoromethyl)phenyl]ethyl]-12-ethoxy-2-[(4-fluorophenyl)methyl]-27-isobutyl-N,N,4,19,22,26,32,35-octamethyl-30-[(1S)-1-methylpropyl]-3,6,9,15,18,21,25,28,31,34,42-undecaoxo-spiro[1,4,7,10,16,19,22,26,29,32,35-undecazatricyclo[34.5.1.0^10,14]dotetracont-38-ene-17,1′-cyclobutane]-23-carboxamide] | – | – | – | – | HRAS/KRAS (ratio of KD value for HRAS to KD value for KRAS) ([1]; KD ratio class): B (a compound having 3 or more and less than 10 is denoted as B); NRAS/KRAS (ratio of KD value for NRAS to KD value for KRAS) ([2]; KD ratio class): A (a compound having 10 or more and less than 20 is denoted as A); Kd [3, 5]: 0.081 nM |
| 0.49 | CCC[C@H]1C(=O)N[C@@H]([C@@H](C)CC)C(=O)N(C)CC(=O)N(C)[C@H]2C/C=C\CCN(C2=O)[C@@H](Cc2ccc(C)cc2)C(=O)N(C)CC(=O)N[C@@H](CCc2cc(F)c(C(F)F)c(F)c2)C(=O)N2C[C@H](OCC)C[C@H]2C(=O)NC2(CC(C)(C)C2)C(=O)N(C)[C@@H](C2CCCC2)C(=O)N(C)[C@H](C(=O)N(C)C)CC(=O)N1C [PP2782] | – | – | A (a compound having 10 or more and less than 20 is denoted as A) | A (a compound having 10 or more and less than 20 is denoted as A) | – |
| 0.21 | CCCN1C(=O)CN(C)C(=O)CN(C)C(=O)[C@H](C2CC(F)(F)C2)NC(=O)[C@H](CC(C)C)N(C)C(=O)C[C@@H](C(=O)N2CCOCC2)N(C)C(=O)[C@H](C2CCCC2)N(C)C(=O)C2(CCCC2)NC(=O)[C@@H]2CCCN2C(=O)[C@H](CCc2cc(F)c(C(F)(F)F)c(F)c2)NC(=O)CN(C)C(=O)[C@@H]1Cc1ccc(C(F)(F)F)cc1 [PP0769] ([NMeL][X13][Sar][Sar][NPrPhe(4-CF3)][Sar][hPhe(3,5-F2-4-CF3)]P[Ac5c][NMeGly(cPent)][NMeD]-Morpholide; lactam N-11) | – | – | – | – | HRAS/KRAS (ratio of KD value with respect to HRAS to KD value with respect to KRAS) [1]: C (A compound having a KD ratio of 0.1 or more and less than 3 is denoted as C); NRAS/KRAS (ratio of KD value with respect to NRAS to KD value with respect to KRAS) [2]: B (a compound having 3 or more and less than 10 is denoted as B) |
| – | CC[C@H](C)[C@@H]1NC(=O)[C@H](CC(C)C)N(C)C(=O)C[C@@H](C(=O)N2CCOCC2)N(C)C(=O)[C@H](C2CCCC2)N(C)C(=O)C2(CCC2)NC(=O)[C@@H]2C[C@@H](OCC3CCCC3)CN2C(=O)[C@H](CCc2cc(F)c(C(F)(F)F)c(F)c2)NC(=O)CN(C)C(=O)[C@H](Cc2ccc(C(F)(F)F)cc2)N2CCCC[C@@H](C2=O)N(C)C(=O)CN(C)C1=O [PP1015] | C (A compound having a KD ratio of 0.1 or more and less than 3 is denoted as C) | C (A compound having a KD ratio of 0.1 or more and less than 3 is denoted as C) | – | – | Kd ([3]; SPR, Single Cycle Kinetics): 5 nM |
